Data set [1] relates to Human Myeloma Cell Lines (HMCLs). Briefly: CellTiter-Glo cell viability, IC50 in human myeloma cell lines. Format: cell-based. On the procedure:
JJN3, OPM2, RPM18266, LP1, AMO1, SKMM2 human myeloma cell lines (HMCLs) were obtained from ATCC (Molshein, France) and were cultured in RPMI 1640 medium, supplemented with 10% fetal calf serum (Biochrom, Berlin, Germany) and 2 mM L-Glutamine. The interleukin-6-dependent cell lines XG1, XG2, XG6, XG7, XG12, XG19, XG20, XG21 were obtained as previously described and maintained in the presence of 2 ng/mL recombinant IL-6 (R&D Systems, Oxon, UK), 10% fetal calf serum and 2 mM L-Glutamine.
Cells in culture were stained using trypan blue solution (Sigma-Aldrich, St. Louis MO, USA) and viable cells were counted under a light microscope. The CellTiter-Glo Luminescent Viability assay (Promega, Leiden, The Netherlands) was used to measure the effect on cell viability according to manufacturer's instructions, and the 50% inhibition (IC50) was determined using GraphPad Prism software (http://www.graphpad.com/scientific-software/prism/).

Data set [2] has as its system XG2-MeIR cell line. Briefly: Melphalan response with or without Pyridostatin, Melphalan-resistant XG2 cell line. Format: cell-based, human. The following applies: 4 days (FIGS. 14 and 15).
Data set [3] relates to primary MM cells from patients. The data set is described as follows: Primary patient samples, viable CD138+ MM cells by flow cytometry. Format: cell-based, human. Conditions: co-cultured with bone marrow microenvironment (FIG. 6B, 6C).
The test system of data set [4] is normal cells from the bone marrow microenvironment. Briefly: Primary patient samples, co-cultured normal bone marrow cells by flow cytometry. Format: cell-based, human. Conditions: five MM patients (FIG. 6C). Here is the method:
FIG. 6A represents the IC50 of Pyridostatin (nM) for […]: a is OPM2; b is XG12; c is XG21; d is XG19; e is RPM18266; f is LP1; g is XG6; h is JJN3; I is XG2; j is XG7; k: L363; I is XG1; m is AMO1; n is SKMM2 and o is XG20. IC50 of Pyridostatin +/−SD are representative of 3 independent experiments. NA: not reached. FIG. 6B represents the Pyridostatin toxicity on bone marrow cells (x-axis is the Pyridostatin concentration in μM; y-axis is the cell count in percentage of the control (0 μM of Pyridostatin)). The toxicity of Pyridostatin was assessed on primary bone marrow cells from one MM patient (dark grey bars), co-cultured with normal bone marrow microenvironment (light grey). The toxicity on MM cells and normal bone marrow cells was assessed by flow cytometry using CD138 and CD28 marker cells. FIG. 6C represents the Pyridostatin toxicity on bone marrow cells (x-axis is the Pyridostatin concentration in μM; y-axis is the cell count in percentage of the control (0 μM of Pyridostatin)). The toxicity of Pyridostatin was assessed on primary bone marrow cells from five MM patient (black bars) and co-cultured with normal bone marrow microenvironment (grey bars). The toxicity on MM cells and normal bone marrow cells was assessed by flow cytometry using CD138 and CD28 marker cells. Data are mean values of five independent experiments. […]

Data set [5] relates to XG7-RH. The data set is described as follows: Western blot of DNA damage response in XG7 with inducible RNase H. Format: cell-based, human. The following applies: XG7-RH with doxycycline, 5 h or 24 h (FIG. 7). On the procedure:
FIGS. 7A and 7B represent Western blots. Doxy stands for doxycycline. PDS stands for Pyridostatin (concentration in μM). XG7 cell line was transduced with a doxycycline-inducible lentivirus containing RNase H gene (XG7-RH). XG7-RH was cultured with or without doxycycline in absence or presence of Pyridostatin during 5 h or 24 h. Western blot membranes were stained with anti-Phospho-Chk2, anti-Phospho-P53, anti-P53, anti-PARP, anti-myc (FIG. 7A) and anti-p21, anti-p16, anti-p27 and anti-gH2AX (FIG. 7B). Tubulin protein level was used as control.
Western Blot Analysis Western blot analysis was performed as previously described (Viziteu, E. et al., Leukemia 31, 2104-2113, 2017). Tubulin was used as loading control. All antibodies used were purchased from Cell Signaling, except for p21, p27, Myc, and phospho-Histone H2A.X. Myc antibody was obtained from Santa Cruz biotechnology (Texas, USA), phospho-Histone H2A.X antibody from Merck Millipore (Sigma-Aldrich), and p27 antibody was from Sigma-Aldrich.

Data set [6] deals with MM cell. Briefly: MM cell growth, apoptosis and cell cycle after Pyridostatin. Format: cell-based, human.
Data set [7] relates to XG2 cell line. Briefly: Melphalan IC50 with or without Pyridostatin, XG2 cell line. Format: cell-based. Conditions: Homo sapiens.

Regarding `CCNC(=O)C[C@@H]1N=C(c2ccc(Cl)cc2)c2cc(OC)ccc2-n2c(C)nnc21` [I-BET-762, (4S)-6-(4-Chlorophenyl)-N-ethyl-8-methoxy-1-methyl-4H-[1,2,4]triazolo[4,3-a][1,4]benzodiazepine-4-acetamide], the “sensitivity of HMCLs with high TRC score compared to low TRC score” value in data set [1] is listed as “significantly more sensitive”.

For the molecule `NCCOc1cc(C(=O)Nc2cc(OCCN)c3ccccc3n2)nc(C(=O)Nc2cc(OCCN)c3ccccc3n2)c1` [Pyridostatin], in data set [1] (5 cell lines (FIG. 6A)), the “resistance to PDS” value is on record as “higher resistance”. Moreover, the IC50 in data set [1] (Homo sapiens, 10 HMCLs (FIG. 6A), read-out: IC50 of Pyridostatin) is at most 2000 nM. Also, in data set [2], the “re-sensitization of resistant cells to Melphalan” value is listed as “re-sensitize the resistant cells (XG2-MeIR) to Melphalan”. Further, in data set [3], the “toxicity on primary MM cells” value is reported as “toxicity”. Also, the “toxicity on co-cultured normal cells” value in data set [4] was “without any significant toxicity”. For the same molecule, in data set [5], the “DNA damage response after PDS treatment on inducible RNase H expression (phosphorylation of Chk2, p53; p21 and p16 expression)” value is “significant reduction of DNA damage response”. Further, in data set [6], the MM cell growth entry was “inhibits MM cell growth”, the apoptosis result is recorded as “induces apoptosis” and the cell cycle entry is recorded as “significant accumulation in G2/M phase”.

For `COc1cc(OC)c2c(=O)[nH]c(-c3cc(C)c(OCCO)c(C)c3)nc2c1` [RVX-208, 2-[4-(2-hydroxyethoxy)-3,5-dimethylphenyl]-5,7-dimethoxy-4(3H)-quinazolinone], the “sensitivity of HMCLs with high TRC score compared to low TRC score” value in data set [1] was “significantly more sensitive”.

Consider `N[C@@H](Cc1ccc(N(CCCl)CCCl)cc1)C(=O)O` [Melphalan], for which the IC50 amounted to 1490 nM in data set [7] (96 h, black bars, Melphalan and Pyridostatin at 1.25 μM for 4 days, first value printed for XG2 (FIG. 15)); 632 nM in data set [7] (96 h, black bars, Melphalan and Pyridostatin at 1.25 μM for 4 days, second value printed for XG2 (FIG. 15)); 632 nM in data set [7] (grey bars, Melphalan alone, first value printed for XG2 (FIG. 15)); 350 nM in data set [7] (grey bars, Melphalan alone, second value printed for XG2 (FIG. 15)).

The values are drawn from patent publication US20250281502A1, “NEW DRUG APPLICATION” (Centre National de la Recherche Scientifique, priority 2021, published 2025).
